Results as given in PubChem BioAssay AID1963829 (Molecular Pharmacology Branch, DTP, NCI, 2024).
pIC50: −log10 of the molar value.

Test system: 935938-334-R-J1-PDC complex spheroid viability
Experiment: Anticancer human tumor 935938-334-R-J1-PDC patient-derived small intestine adenocarcinoma cell line growth inhibition [POLQ]
Conditions: for pIC50: curve of first compound; for viability, T/C: stronger effect = lower value
In short: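 Growth inhibition in 3D: complex spheroids (tumor PDC, HUVEC, MSC) treated with POLQ inhibitor combinations; where Cmax unknown, highest tested concentration 10 microM, except SN-38 at 1 microM.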

[1] = second compound 0.0316 µM, first compound 0.0316 µM
[2] = second compound 0.0316 µM, first compound 0.1 µM
[3] = second compound 0.0316 µM, first compound 0.316 µM
[4] = second compound 0.0316 µM, first compound 1 µM
[5] = second compound 0.0316 µM, first compound 3.16 µM
[6] = second compound 0.0316 µM, first compound 10 µM
[7] = second compound 0.1 µM, first compound 0.0316 µM
[8] = second compound 0.1 µM, first compound 0.1 µM
[9] = second compound 0.1 µM, first compound 0.316 µM
[10] = second compound 0.1 µM, first compound 1 µM
[11] = second compound 0.1 µM, first compound 3.16 µM
[12] = second compound 0.1 µM, first compound 10 µM
[13] = second compound 0.316 µM, first compound 0.0316 µM
[14] = second compound 0.316 µM, first compound 0.1 µM
[15] = second compound 0.316 µM, first compound 0.316 µM
[16] = second compound 0.316 µM, first compound 1 µM
[17] = second compound 0.316 µM, first compound 3.16 µM
[18] = second compound 0.316 µM, first compound 10 µM
[19] = second compound 1 µM, first compound 0.0316 µM
[20] = second compound 1 µM, first compound 0.1 µM
[21] = second compound 1 µM, first compound 0.316 µM
[22] = second compound 1 µM, first compound 1 µM
[23] = second compound 1 µM, first compound 3.16 µM
[24] = second compound 1 µM, first compound 10 µM
[25] = second compound 3.16 µM, first compound 0.0316 µM
[26] = second compound 3.16 µM, first compound 0.1 µM
[27] = second compound 3.16 µM, first compound 0.316 µM
[28] = second compound 3.16 µM, first compound 1 µM
[29] = second compound 3.16 µM, first compound 3.16 µM
[30] = second compound 3.16 µM, first compound 10 µM
[31] = second compound 10 µM, first compound 0.0316 µM
[32] = second compound 10 µM, first compound 0.1 µM
[33] = second compound 10 µM, first compound 0.316 µM
[34] = second compound 10 µM, first compound 1 µM
[35] = second compound 10 µM, first compound 3.16 µM
[36] = second compound 10 µM, first compound 10 µM
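Note: spheroids exposed to drugs for seven days before viability read.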
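Throughout, for viability, T/C: 100% = DMSO vehicle control wells.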

`CC(C)n1c(=O)n(C)c2cnc3cc(F)c(-c4ccc(OCCCN5CCCCC5)nc4)cc3c21` + COC1C(OC(N)=O)C(O)C(Oc2ccc3c(O)c(NC(=O)c4ccc(O)c(CC=C(C)C)c4)c(=O)oc3c2C)OC1(C)C gave a pIC50 (second compound 0.0316 µM) of under 5.00, a pIC50 (second compound 0.1 µM) of under 5.00 and a pIC50 (second compound 0.316 µM) of under 5.00. The pIC50 (second compound 1 µM) was under 5.00, the pIC50 (second compound 3.16 µM) was under 5.00 and the pIC50 (second compound 10 µM) was under 5.00. For the same molecule, the viability, T/C [1] was 124%, the viability, T/C [2] was 124% and the viability, T/C [3] was 108%. It also gave a viability, T/C [4] of 95.4%, a viability, T/C [5] of 138% and a viability, T/C [6] of 133%. It also gave a viability, T/C [7] of 123%, a viability, T/C [8] of 109% and a viability, T/C [9] of 79%. For the same molecule, the viability, T/C [10] was 135%, the viability, T/C [11] was 139% and the viability, T/C [12] was 92.8%. It also gave a viability, T/C [13] of 98%, a viability, T/C [14] of 105% and a viability, T/C [15] of 118%. For the same molecule, the viability, T/C [16] was 119%, the viability, T/C [17] was 108% and the viability, T/C [18] was 85.2%. The viability, T/C [19] was 81.3%, the viability, T/C [20] was 117% and the viability, T/C [21] was 99.3%. For the same molecule, the viability, T/C [22] was 113%, the viability, T/C [23] was 104% and the viability, T/C [24] was 120%. For the same molecule, the viability, T/C [25] was 95%, the viability, T/C [26] was 115% and the viability, T/C [27] was 89.6%. The viability, T/C [28] was 117%, the viability, T/C [29] was 106% and the viability, T/C [30] was 90.3%. The viability, T/C [31] was 94.4%, the viability, T/C [32] was 135% and the viability, T/C [33] was 122%. The viability, T/C [34] was 160%, the viability, T/C [35] was 133% and the viability, T/C [36] was 101%.

For `CNCc1ccc(-c2[nH]c3cc(F)cc4c3c2CCNC4=O)cc1` + COC1C(OC(N)=O)C(O)C(Oc2ccc3c(O)c(NC(=O)c4ccc(O)c(CC=C(C)C)c4)c(=O)oc3c2C)OC1(C)C, the pIC50 (second compound 0.0316 µM) was under 5.00, the pIC50 (second compound 0.1 µM) was under 5.00 and the pIC50 (second compound 0.316 µM) was under 5.00. The pIC50 (second compound 1 µM) was under 5.00, the pIC50 (second compound 3.16 µM) was under 5.00 and the pIC50 (second compound 10 µM) was under 5.00. It also gave a viability, T/C [1] of 124%, a viability, T/C [2] of 97.1% and a viability, T/C [3] of 87.9%. For the same molecule, the viability, T/C [4] was 87.4%, the viability, T/C [5] was 75.4% and the viability, T/C [6] was 83.4%. The viability, T/C [7] was 79.9%, the viability, T/C [8] was 111% and the viability, T/C [9] was 94.9%. It also gave a viability, T/C [10] of 87.6%, a viability, T/C [11] of 98.5% and a viability, T/C [12] of 96.7%. The viability, T/C [13] was 115%, the viability, T/C [14] was 108% and the viability, T/C [15] was 94.9%. For the same molecule, the viability, T/C [16] was 92.3%, the viability, T/C [17] was 84% and the viability, T/C [18] was 87.8%. It also gave a viability, T/C [19] of 92.6%, a viability, T/C [20] of 105% and a viability, T/C [21] of 113%. For the same molecule, the viability, T/C [22] was 105%, the viability, T/C [23] was 98.8% and the viability, T/C [24] was 92.9%. It also gave a viability, T/C [25] of 87.5%, a viability, T/C [26] of 100% and a viability, T/C [27] of 70.7%. For the same molecule, the viability, T/C [28] was 75.2%, the viability, T/C [29] was 94% and the viability, T/C [30] was 99.2%. The viability, T/C [31] was 95.7%, the viability, T/C [32] was 113% and the viability, T/C [33] was 82.9%. For the same molecule, the viability, T/C [34] was 94.4%, the viability, T/C [35] was 117% and the viability, T/C [36] was 88.7%.

Molecule `COc1cccc2c1C(=O)c1c(O)c3c(c(O)c1C2=O)CC(O)(C(=O)CO)CC3OC1CC(N)C(O)C(C)O1` (stereo unspecified) + COC1C(OC(N)=O)C(O)C(Oc2ccc3c(O)c(NC(=O)c4ccc(O)c(CC=C(C)C)c4)c(=O)oc3c2C)OC1(C)C has a pIC50 (second compound 0.0316 µM) of 6.66, a pIC50 (second compound 0.1 µM) of 6.66 and a pIC50 (second compound 0.316 µM) of 6.72. The pIC50 (second compound 1 µM) was 6.64, the pIC50 (second compound 3.16 µM) was 6.68 and the pIC50 (second compound 10 µM) was 6.67. For the same molecule, the viability, T/C [1] was 84.4%, the viability, T/C [2] was 93.7% and the viability, T/C [3] was 30.8%. It also gave a viability, T/C [4] of 19.2%, a viability, T/C [5] of 5.61% and a viability, T/C [6] of 7.78%. For the same molecule, the viability, T/C [7] was 75.3%, the viability, T/C [8] was 98.3% and the viability, T/C [9] was 33.4%. It also gave a viability, T/C [10] of 20.2%, a viability, T/C [11] of 4.7% and a viability, T/C [12] of 4.37%. For the same molecule, the viability, T/C [13] was 67.5%, the viability, T/C [14] was 93.3% and the viability, T/C [15] was 25.9%. The viability, T/C [16] was 20.4%, the viability, T/C [17] was 6.24% and the viability, T/C [18] was 5.64%. The viability, T/C [19] was 66.8%, the viability, T/C [20] was 103% and the viability, T/C [21] was 36%. For the same molecule, the viability, T/C [22] was 23.7%, the viability, T/C [23] was 6.64% and the viability, T/C [24] was 5.44%. It also gave a viability, T/C [25] of 52.7%, a viability, T/C [26] of 113% and a viability, T/C [27] of 32.1%. For the same molecule, the viability, T/C [28] was 22.1%, the viability, T/C [29] was 6.52% and the viability, T/C [30] was 3.3%. The viability, T/C [31] was 61.5%, the viability, T/C [32] was 122% and the viability, T/C [33] was 29%. For the same molecule, the viability, T/C [34] was 21.3%, the viability, T/C [35] was 5.32% and the viability, T/C [36] was 5.87%.
